Legend:
cdc2 in PDV cells = assay: Western blot p-cdc2/cdc2; assay type: cell-based, mouse; conditions: 24 h; KWM-EO 75 μg/mL, LM-EO 75 μg/mL, L+C 60 μg/mL, PLX4032 0.5 μM, each alone
Experimental: (§1) Cells were treated with EOs or compounds at the indicated concentrations and lysed in RIPA lysis buffer. Protein concentrations were measured by DC protein assay (Bio-Rad, United States). Western blotting was performed as described by Shyur et al. Protein samples were separated by 10 or 12% SDS-PAGE, and electro-transferred onto PVDF membranes (Merck Millipore, United States). The membranes were blocked with 5% skimmed milk in TBST for 1 h at room temperature. After washing the membranes three times with TBST, membranes were incubated with appropriate primary antibodies overnight (12-16 h) at 4° C. The membranes were washed with TBST three times, followed by incubation with horseradish peroxidase (HRP)-conjugated anti-mouse IgG or anti-rabbit IgG secondary antibodies for 2 h at room temperature. Reactive protein bands were visualized using enhanced chemiluminescent detection reagents (GE Healthcare, United States) and exposed to chemiluminescence light film (GE Healthcare, United States). The expression levels of targeted proteins were quantified by ImageJ software (National Institutes of Health, United States).

[1] = system: DMBA/TPA/PLX4032-induced skin papilloma; assay: Two-stage skin carcinogenesis, DMBA/TPA accelerated by PLX4032; assay type: in vivo, FVB/NJNarl mice
Experimental: Female FVB/NJNarl mice (5-6 weeks old) were randomized into 9 groups, each group contained 8 mice. Mice had their back hair shaved three days before topical application of 25 μg 7,12-dimethylbenz[a]anthracene (DMBA) in 200 μL acetone. The first week after tumor initiation, 4 μg of 12-O-tetradecanoylphorbol-13-acatate (TPA) in 200 μL acetone was topically applied twice a week to the shaved back skin for 12 weeks. Mice were treated with the indicated concentrations of mint EOs or compounds (in 200 μL acetone) twice a week by topical application the day after TPA treatment for 12 weeks. Tumor size of more than 1 mm diameter was counted every week. After mice were sacrificed, internal organs (heart, liver, spleen, lung, and kidneys), serum, skin and papillomas were collected and fixed with 10% formalin or stored at −80° C.

[2] = system: epidermis of mouse dorsal skin; assay: Histopathology (H&E) of mouse skin from two-stage skin carcinogenesis; assay type: in vivo, FVB mice; conditions: intraperitoneal PLX4032 in DMBA/TPA skin
patients = patients treated with PLX4032; cited from earlier work
B16 melanoma cells = assay: Depigmentation assay (melanin absorbance 405 nm); assay type: cell-based, Murine; conditions: 24 h; 15 and 25 μg/mL LM-EO, 100 μg/mL KA
Experimental: B16 cells (1×10^6 cells/15-cm dish) were treated with vehicle (0.5% DMSO), 15 and 25 μg/mL LM-EO (LM15 and LM25), or 100 μg/mL kojic acid (KA100) for 6, 12, 24 h. After washing with PBS for two times, the cells were harvested by cell scrapper and centrifugation. The cell pellets were then taken a photo before dissolved in 1 N NaOH at 60° C. for 1 h. The volume of NaOH used to dissolve the cell pellets were adjusted based on the cell populations to yield the equal concentration. The absorbance was then measured at 405 nm.

tyrosinase in B16 cells = assay: Western blot of tyrosinase in B16 cells; assay type: cell-based, Murine; conditions: 6, 12, 24 h
Experimental: as §1

Compound | ratio of phospho-cdc2 to cdc2, increase vs vehicle (cdc2 in PDV cells) [fold] | swelling of the spleen, effect of PLX4032 ([1]; PLX4032 in DMBA/TPA mice) | tumor multiplicity, effect of PLX4032 on DMBA/TPA mice ([1]; intraperitoneal PLX4032) | proliferation and hyperplasia of the epidermis, effect of PLX4032 [2] | patients developing squamous cell carcinoma (SCC) and keratoacanthoma (KA) (patients) | depigmentation effect (melanin) (B16 melanoma cells) | tyrosinase expression (tyrosinase in B16 cells)
CCCS(=O)(=O)Nc1ccc(F)c(C(=O)c2c[nH]c3ncc(-c4ccc(Cl)cc4)cc23)c1F [PLX4032, vemurafenib] | 2.1 | exacerbated the swelling of the spleen | greatly increased the tumor multiplicity | exacerbated the proliferation and hyperplasia of the epidermis | 20-30% | – | –
O=c1cc(CO)occ1O [KA, Kojic acid] | – | – | – | – | – | depigmentation effect with statistical significance | time-dependently inhibited tyrosinase expression
